14 compounds from ChEMBL document CHEMBL3091391, “An assay for human telomeric G-quadruplex DNA binding drugs” (Bioorg Med Chem Lett, 2013) can be followed below.

Activity calls are given as the source filed them. No cut-off for these calls is given here.

The species entered for test [1] is Homo sapiens. Description: Binding affinity to human telomeric G-quadruplex DNA.
The species entered for test [2] is Homo sapiens. Put plainly: Binding affinity to human d[AGGG(TTAGGG)3] telomeric G-quadruplex DNA by fluorescence-based assay.
The species entered for test [3] is Homo sapiens. Put plainly: Binding affinity to human d[AGGG(TTAGGG)3] telomeric G-quadruplex DNA after 1 to 12 hrs by titrimetric analysis in presence of sodium ions.
The species named for test [4] is Homo sapiens. Description: Binding affinity to human d[AGGG(TTAGGG)3] telomeric G-quadruplex DNA after 1 to 12 hrs by titrimetric analysis in presence of potassium ions.
For test [5], the species on record is Homo sapiens. Description: Selectivity ratio of binding affinity for human d[AGGG(TTAGGG)3] telomeric G-quadruplex DNA in presence of sodium ions to binding affinity for human d[AGGG(TTAGGG)3] telomeric G-quadruplex DNA in presence of potassium ions.
Test [6] is described as follows: Binding affinity to d(G4C4)2 duplex DNA (unknown origin) by fluorescence-based assay.

As to `NC[C@@H]1O[C@H](O[C@H]2[C@@H](O)[C@H](O[C@@H]3[C@@H](O)[C@H](N)C[C@H](N)[C@H]3O[C@H]3O[C@H](CN)[C@@H](O)[C@H](O)[C@H]3N)O[C@@H]2CSCCNC(=S)NCCCNC(=O)c2ccc3c(c2)C(=O)c2ccccc2C3=O)[C@H](N)[C@@H](O)[C@@H]1O`, in the test listed under Homo sapiens [1], the Ka was found to be 1.25 ×10⁷ /M.
For `NC[C@@H]1O[C@H](O[C@H]2[C@@H](O)[C@H](O[C@@H]3[C@@H](O)[C@H](N)C[C@H](N)[C@H]3O[C@H]3O[C@H](CN)[C@@H](O)[C@H](O)[C@H]3N)O[C@@H]2CNC(=S)NCCCNC(=S)NCc2ccc3c(c2)C(=O)c2ccccc2C3=O)[C@H](N)[C@@H](O)[C@@H]1O`, in the test filed under Homo sapiens [2], the result was inactive.
Same read-out and setting: next, `NC[C@@H]1O[C@H](O[C@H]2[C@@H](O)[C@H](O[C@@H]3[C@@H](O)[C@H](N)C[C@H](N)[C@H]3O[C@H]3O[C@H](CN)[C@@H](O)[C@H](O)[C@H]3N)O[C@@H]2CSCCNC(=S)NCc2ccc3c(c2)C(=O)c2ccccc2C3=O)[C@H](N)[C@@H](O)[C@@H]1O`: “inactive”; `NC[C@@H]1O[C@H](O[C@H]2[C@@H](O)[C@H](O[C@@H]3[C@@H](O)[C@H](N)C[C@H](N)[C@H]3O[C@H]3O[C@H](CN)[C@@H](O)[C@H](O)[C@H]3N)O[C@@H]2CSCCNC(=S)NCCCCCCCCCCNC(=S)NCc2ccc3c(c2)C(=O)c2ccccc2C3=O)[C@H](N)[C@@H](O)[C@@H]1O`: “inactive”.
Still for that read-out and setting: next, `NC[C@@H]1O[C@H](O[C@H]2[C@@H](O)[C@H](O[C@@H]3[C@@H](O)[C@H](N)C[C@H](N)[C@H]3O[C@H]3O[C@H](CN)[C@@H](O)[C@H](O)[C@H]3N)O[C@@H]2CSCCNC(=S)Nc2ccc3c(c2)C(=O)c2ccccc2C3=O)[C@H](N)[C@@H](O)[C@@H]1O`: “inactive”.
On the same count and under the same terms, next, `NC[C@@H]1O[C@H](O[C@H]2[C@@H](O)[C@H](O[C@@H]3[C@@H](O)[C@H](N)C[C@H](N)[C@H]3O[C@H]3O[C@H](CN)[C@@H](O)[C@H](O)[C@H]3N)O[C@@H]2CNC(=S)NCCCCCCCCCCNC(=S)NCc2ccc3c(c2)C(=O)c2ccccc2C3=O)[C@H](N)[C@@H](O)[C@@H]1O`: “inactive”.
As for `NC[C@@H]1O[C@H](O[C@H]2[C@@H](O)[C@H](O[C@@H]3[C@@H](O)[C@H](N)C[C@H](N)[C@H]3O[C@H]3O[C@H](CN)[C@@H](O)[C@H](O)[C@H]3N)O[C@@H]2CSCCNC(=S)NCCNC(=S)NCc2ccc3c(c2)C(=O)c2ccccc2C3=O)[C@H](N)[C@@H](O)[C@@H]1O`, in the test filed under Homo sapiens [2], the result was inactive.
Same read-out and setting: next, `NC[C@@H]1O[C@H](O[C@H]2[C@@H](O)[C@H](O[C@@H]3[C@@H](O)[C@H](N)C[C@H](N)[C@H]3O[C@H]3O[C@H](CN)[C@@H](O)[C@H](O)[C@H]3N)O[C@@H]2CSCCNC(=S)NCCCOCCCCOCCCNC(=S)NCc2ccc3c(c2)C(=O)c2ccccc2C3=O)[C@H](N)[C@@H](O)[C@@H]1O`: “inactive”; `NC[C@@H]1O[C@H](O[C@H]2[C@@H](O)[C@H](O[C@@H]3[C@@H](O)[C@H](N)C[C@H](N)[C@H]3O[C@H]3O[C@H](CN)[C@@H](O)[C@H](O)[C@H]3N)O[C@@H]2CNC(=S)Nc2ccc3c(c2)C(=O)c2ccccc2C3=O)[C@H](N)[C@@H](O)[C@@H]1O`: “inactive”; `NC[C@@H]1O[C@H](O[C@H]2[C@@H](O)[C@H](O[C@@H]3[C@@H](O)[C@H](N)C[C@H](N)[C@H]3O[C@H]3O[C@H](CN)[C@@H](O)[C@H](O)[C@H]3N)O[C@@H]2CNC(=S)NCCCOCCCCOCCCNC(=S)NCc2ccc3c(c2)C(=O)c2ccccc2C3=O)[C@H](N)[C@@H](O)[C@@H]1O`: “inactive”.
Still for that read-out and setting: in the case of `NCC1O[C@H](O[C@H]2[C@@H](O)[C@H](O[C@@H]3[C@@H](O)[C@H](N)C[C@H](N)[C@H]3O[C@H]3O[C@H](CN)[C@@H](O)[C@H](O)[C@H]3N)O[C@@H]2CNC(=S)NCc2ccc3c(c2)C(=O)c2ccccc2C3=O)[C@H](N)[C@@H](O)[C@@H]1O` (single isomer, unassigned) it was “inactive”; in that of `NC[C@@H]1O[C@H](O[C@H]2[C@@H](O)[C@H](O[C@@H]3[C@@H](O)[C@H](N)C[C@H](N)[C@H]3O[C@H]3O[C@H](CN)[C@@H](O)[C@H](O)[C@H]3N)O[C@@H]2CNC(=S)NCCNC(=S)NCc2ccc3c(c2)C(=O)c2ccccc2C3=O)[C@H](N)[C@@H](O)[C@@H]1O`, “inactive”.
Still for that read-out and setting: next, `NC[C@@H]1O[C@H](O[C@H]2[C@@H](O)[C@H](O[C@@H]3[C@@H](O)[C@H](N)C[C@H](N)[C@H]3O[C@H]3O[C@H](CN)[C@@H](O)[C@H](O)[C@H]3N)O[C@@H]2CSCCNC(=S)NCCCNC(=S)NCc2ccc3c(c2)C(=O)c2ccccc2C3=O)[C@H](N)[C@@H](O)[C@@H]1O`: “inactive”.
As to `CN1/C(=C/c2cc[n+](CCCCC(=O)NCCSC[C@H]3O[C@@H](O[C@@H]4[C@@H](O)[C@H](N)C[C@H](N)[C@H]4O[C@H]4O[C@H](CN)[C@@H](O)[C@H](O)[C@H]4N)[C@H](O)[C@@H]3O[C@H]3O[C@@H](CN)[C@@H](O)[C@H](O)[C@H]3N)c3ccccc23)Sc2ccccc21`, the K was found to be 9.6 ×10⁷ /M in the test listed under Homo sapiens [3] and 9.3 ×10⁶ /M in the test listed under Homo sapiens [4]. Moreover, in the test filed under Homo sapiens [5], the Selectivity ratio is 10. The result in test [6] was Active.
